The values below come from publication PMC4255642 (Biochemistry, 2014).

Molecules are shown by their SMILES.

Experiment [1] relates to wild-type and mutant membrane-bound F1Fo ATP synthase. It counts as biochemical. To be noted: wild type and six mutants; 150 μM NBD-Cl 1 h, then 4 mM DTT 1 h.
In another experiment the test system is F1Fo-bound membranes. The experiment is described as follows: Control: protecting ligand without added NBD-Cl, ATPase activity. The experiment is classed as biochemical, Escherichia coli. Particulars: MgADP up to 10 mM, Pi up to 50 mM.
Experiment [2] concerns the target αT349D mutant membrane-bound F1Fo ATP synthase (Escherichia coli, UniProt P0ABB0+P0ABB4, T349D/Y332W). The experiment is classed as biochemical. Particulars: sodium azide 30 min preincubation.
In experiment [3] the target is αT349R mutant membrane-bound F1Fo ATP synthase (Escherichia coli, UniProt P0ABB0+P0ABB4, T349R/Y332W). It counts as biochemical. Particulars: sodium azide 30 min preincubation.
Experiment [4] deals with αT349A mutant membrane-bound F1Fo ATP synthase (Escherichia coli, UniProt P0ABB0+P0ABB4, T349A/Y332W). It counts as biochemical. To be noted: sodium azide 30 min preincubation.
For experiment [5], the target named is αT349Q mutant membrane-bound F1Fo ATP synthase (Escherichia coli, UniProt P0ABB0+P0ABB4, T349Q/Y332W). It counts as biochemical. Particulars: sodium azide 30 min preincubation.
Experiment [6] has as its target αT349R/βR182A double mutant membrane-bound F1Fo ATP synthase (Escherichia coli, UniProt P0ABB0+P0ABB4, R183A/T349R/Y332W). The experiment is classed as biochemical. Particulars: sodium azide 30 min preincubation.
Experiment [7] concerns the target βR182A mutant membrane-bound F1Fo ATP synthase (Escherichia coli, UniProt P0ABB0+P0ABB4, R183A/Y332W). It counts as biochemical. Particulars: sodium azide 30 min preincubation.

As for `O[C@@H](CS)[C@@H](O)CS` (racemic) [DTT, dithiothreitol], the “reversal of NBD-Cl inactivation of ATPase activity by DTT” value in experiment [1] is given as “completely restored full activity in all cases”.
In the case of `Nc1ncnc2c1ncn2[C@@H]1O[C@H](COP(=O)([O-])OP(=O)([O-])O)[C@@H](O)[C@H]1O.[Mg+2]` [MgADP], the “inhibitory effect of ligand alone on ATPase activity” value with F1Fo-bound membranes was “Neither MgADP (up to 10 mM) nor Pi (up to 50 mM) had any inhibitory effect alone”.
On the same count and under the same terms, to `O=P(O)(O)O` [Pi, inorganic phosphate] belongs “Neither MgADP (up to 10 mM) nor Pi (up to 50 mM) had any inhibitory effect alone”.
As to `[N-]=[N+]=[N-].[Na+]` [azide, sodium azide], the “residual ATPase activity with azide” value is ~90% in experiment [2]; ~40% in experiment [3]; ~53% in experiment [4]; ~90% in experiment [5]; ~21% in experiment [6]; ~72% in experiment [7].
